Experimental data from PMC7031696 (Cell chemical biology, 2019).
Entries after “also recorded” stand apart in the source; their conditions may differ. Where two headings read alike, the source gives them in different places.

Columns and labels:
[1] = test system: Plasmodium falciparum 3D7-A10 parasites; test: Stage specificity assay (8-h exposure of synchronized stages, IC50^8h); type: cell-based; conditions: for IC50: Plasmodium falciparum
[2] = test system: 3D7-MR4 trophozoite parasite-infected RBCs; test: Metabolomic profiling (hydrophilic metabolite changes, UHPLC-MS); type: cell-based, Plasmodium falciparum
[3] = test system: asynchronous 3D7-A10 parasite cultures; test: Standard 72-h exposure asexual blood stage susceptibility assay (IC50^72h); type: cell-based, Plasmodium falciparum; conditions: Plasmodium falciparum, 3D7, 72 h, read-out: Overall (72hr assay) Mean IC50 (IC50^72h)

CCCCN(CCCC)CC(O)c1cc(Cl)cc2c1-c1ccc(Cl)cc1/C2=C/c1ccc(Cl)cc1 (centres unmarked) [Lumefantrine, reference compound]
Ratio lowest IC50 8hr/IC50 72hr ([1]; 3D7-A10): 11.6
IC50 ([1]; 3D7, read-out: Early rings Mean IC50 (IC50^8h), 8-h exposure 0–8 hr, 3D7-A10, survival at 60 h): 15.4 nM
IC50 ([1]; 3D7, read-out: Early trophozoites Mean IC50 (IC50^8h), 8-h exposure 16–24 hr, 3D7-A10, survival at 60 h): 19.5 nM
IC50 ([1]; 3D7, read-out: IC50^8h values, text summary of Table S1): < 300 nM
IC50 ([1]; 3D7, read-out: Late rings Mean IC50 (IC50^8h), 8-h exposure 8–16 hr, 3D7-A10, survival at 60 h): 15.8 nM
IC50 ([1]; 3D7, read-out: Late trophozoites Mean IC50 (IC50^8h), 8-h exposure 24–32 hr, 3D7-A10, survival at 60 h): 22.3 nM
IC50 ([1]; 3D7, read-out: Schizonts Mean IC50 (IC50^8h), 8-h exposure 32–40 hr, 3D7-A10, survival at 60 h): 81 nM
Stage of peak activity (Figure 6) ([1]; period when the parasite was most susceptible (lowest IC50^8h)): ring and trophozoite stages; also recorded: both rings and trophozoites
peptide levels (hemoglobin catabolism signature) ([2]; 10 × IC50^72h, 2.5 hr, trophozoites): minor peptide increases
Log2(fold changes) 3-phosphoglycerate ([2]; metabolite 3-phosphoglycerate, log2 fold change): 0.2561
Log2(fold changes) 4-Pyridoxic acid ([2]; metabolite 4-Pyridoxic acid, log2 fold change): 0.0070
Log2(fold changes) 4-aminobutyrate ([2]; metabolite 4-aminobutyrate, log2 fold change): -0.1610
Log2(fold changes) 4-phosphopantetheine ([2]; metabolite 4-phosphopantetheine, log2 fold change): 0.0000
Log2(fold changes) 4-phosphopantothenate ([2]; metabolite 4-phosphopantothenate, log2 fold change): 0.0324
Log2(fold changes) 5-aminopentanoic acid ([2]; metabolite 5-aminopentanoic acid, log2 fold change): 0.0000
Log2(fold changes) 5-methyl-THF ([2]; metabolite 5-methyl-THF, log2 fold change): 0.0000
Log2(fold changes) 5-phosphoribosyl-1-pyrophosphate ([2]; metabolite 5-phosphoribosyl-1-pyrophosphate, log2 fold change): 0.0000
Log2(fold changes) 6-phospho-D-gluconate ([2]; metabolite 6-phospho-D-gluconate, log2 fold change): -0.0221
Log2(fold change) HVDD ([2]; metabolite HVDD): 0.0000
Log2(fold change) Hydroxyisocaproic acid ([2]; metabolite Hydroxyisocaproic acid): 0.0000
Log2(fold change) IDP ([2]; metabolite IDP): 0.0726
Log2(fold change) IMP ([2]; metabolite IMP): 0.0056
Log2(fold change) Inositol ([2]; metabolite Inositol): 0.0000
Log2(fold change) Isopentyl-PP ([2]; metabolite Isopentyl-PP): 0.0000
Log2(fold change) L-arginino-succinate ([2]; metabolite L-arginino-succinate): -0.9519
Log2(fold change) LD ([2]; metabolite LD): -0.1057
Log2(fold change) Myristoyl/tetradecanoyl-CoA ([2]; metabolite Myristoyl/tetradecanoyl-CoA): 0.0333
Log2(fold change) N-Acetyl-L-alanine ([2]; metabolite N-Acetyl-L-alanine): -0.2647
Log2(fold change) N-acetyl-L-ornithine ([2]; metabolite N-acetyl-L-ornithine): -0.6357
Log2(fold change) N-acetyl-glucosamine-1/6-phosphate ([2]; metabolite N-acetyl-glucosamine-1/6-phosphate): 0.0000
Log2(fold change) N-acetyl-glutamate ([2]; metabolite N-acetyl-glutamate): -0.0437
Log2(fold change) N-acetyl-glutamine ([2]; metabolite N-acetyl-glutamine): 0.0000
Log2(fold change) N-carbamoyl-L-aspartate ([2]; metabolite N-carbamoyl-L-aspartate): -0.1460
Log2(fold change) NAD+ ([2]; metabolite NAD+): -0.0402
Log2(fold change) NADH ([2]; metabolite NADH): 0.0000
Log2(fold change) NADP+ ([2]; metabolite NADP+): -0.0151
Log2(fold change) NADPH ([2]; metabolite NADPH): -0.2368
Log2(fold change) O-acetyl-L-serine ([2]; metabolite O-acetyl-L-serine): 0.0000
Log2(fold change) Octoluse 8/1P ([2]; metabolite Octoluse 8/1P): -0.0627
Log2(fold change) Octoluse Bisphosphate ([2]; metabolite Octoluse Bisphosphate): -0.2224
Log2(fold change) PD ([2]; metabolite PD): -0.6715
Log2(fold change) PE ([2]; metabolite PE): -0.8261
Log2(fold change) PEE ([2]; metabolite PEE): -0.8026
Log2(fold change) PEEK ([2]; metabolite PEEK): -1.0553
Log2(fold change) PVNF ([2]; metabolite PVNF): -1.0323
Log2(fold change) Pyroglutamic acid ([2]; metabolite Pyroglutamic acid): -0.2992
Log2(fold change) Pyrophosphate ([2]; metabolite Pyrophosphate): 0.0000
Log2(fold change) Ribose-5-phosphate ([2]; metabolite Ribose-5-phosphate): -0.3541
Log2(fold change) S-adenosyl-L-homocysteine ([2]; metabolite S-adenosyl-L-homocysteine): -0.4489
Log2(fold change) S-adenosyl-L-methioninamine ([2]; metabolite S-adenosyl-L-methioninamine): 0.0000
Log2(fold change) S-adenosyl-L-methionine ([2]; metabolite S-adenosyl-L-methionine): 0.0000
Log2(fold change) S-methyl-5'-thioadenosine ([2]; metabolite S-methyl-5'-thioadenosine): 0.0780
Log2(fold change) SD ([2]; metabolite SD): -0.5378
Log2(fold change) SDL ([2]; metabolite SDL): -0.2618
Log2(fold change) SID ([2]; metabolite SID): -0.7176
Log2(fold change) Sedoheptulose bisphosphate ([2]; metabolite Sedoheptulose bisphosphate): -0.0691
Log2(fold change) Thiamine pyrophosphate ([2]; metabolite Thiamine pyrophosphate): 0.0528
Log2(fold changes) UDP-D-glucose ([2]; metabolite UDP-D-glucose, log2 fold change): 0.0221
Log2(fold changes) UDP-D-glucuronate ([2]; metabolite UDP-D-glucuronate, log2 fold change): 0.0757
Log2(fold changes) UDP-N-acetyl-glucosamine ([2]; metabolite UDP-N-acetyl-glucosamine, log2 fold change): -0.0029
Log2(fold changes) UDP ([2]; metabolite UDP, log2 fold change): 0.0413
Log2(fold changes) UMP ([2]; metabolite UMP, log2 fold change): 0.0984
Log2(fold changes) UTP ([2]; metabolite UTP, log2 fold change): 0.0275
Log2(fold change) hydroxyphenylpyruvate ([2]; metabolite hydroxyphenylpyruvate): 0.0000
Log2(fold change) hydroxyproline/Aminolevulinate ([2]; metabolite hydroxyproline/Aminolevulinate): -0.1667
Log2(fold change) hypoxanthine ([2]; metabolite hypoxanthine): 0.0000
Log2(fold change) indole ([2]; metabolite indole): 0.0000
Log2(fold change) inosine ([2]; metabolite inosine): -0.7307
Log2(fold change) isoleucine ([2]; metabolite isoleucine): -0.3373
Log2(fold change) lactate ([2]; metabolite lactate): -0.7427
Log2(fold change) leucine ([2]; metabolite leucine): -0.5467
Log2(fold change) lysine ([2]; metabolite lysine): -0.9287
Log2(fold change) malate ([2]; metabolite malate): -0.2859
Log2(fold change) maleic acid ([2]; metabolite maleic acid): -0.2558
Log2(fold change) methionine ([2]; metabolite methionine): -0.5836
Log2(fold change) myo-inositol ([2]; metabolite myo-inositol): -1.2017
Log2(fold change) nicotinamide mononucleotide ([2]; metabolite nicotinamide mononucleotide): -0.1717
Log2(fold change) nicotinate ([2]; metabolite nicotinate): -0.0538
Log2(fold change) ornithine ([2]; metabolite ornithine): 0.0000
Log2(fold change) orotate ([2]; metabolite orotate): -0.5668
Log2(fold change) orotidine-5'-phosphate ([2]; metabolite orotidine-5'-phosphate): -1.0458
Log2(fold change) oxaloacetate ([2]; metabolite oxaloacetate): 0.0000
Log2(fold change) p-aminobenzoate ([2]; metabolite p-aminobenzoate): 0.0000
Log2(fold change) p-hydroxybenzoate ([2]; metabolite p-hydroxybenzoate): 0.0000
Log2(fold change) pantothenate ([2]; metabolite pantothenate): 0.0000
Log2(fold change) phenylalanine ([2]; metabolite phenylalanine): -0.5609
Log2(fold change) phenylpyruvate ([2]; metabolite phenylpyruvate): 0.0000
Log2(fold change) phosphoenolpyruvate ([2]; metabolite phosphoenolpyruvate): 0.3731
Log2(fold change) prephenate ([2]; metabolite prephenate): 0.0000
Log2(fold change) proline ([2]; metabolite proline): -0.4274
Log2(fold change) pyridoxine ([2]; metabolite pyridoxine): -0.6579
Log2(fold change) pyruvate ([2]; metabolite pyruvate): -0.6264
Log2(fold change) riboflavin ([2]; metabolite riboflavin): -0.1882
Log2(fold change) ribose ([2]; metabolite ribose): -0.6495
Log2(fold change) ribose-phosphate ([2]; metabolite ribose-phosphate): -0.3829
Log2(fold change) ribulose-5-phosphate ([2]; metabolite ribulose-5-phosphate): -0.2140
Log2(fold change) serine ([2]; metabolite serine): -0.3504
Log2(fold change) sn-glycerol-3-phosphate ([2]; metabolite sn-glycerol-3-phosphate): 0.0117
Log2(fold change) succinate/Methylmalonic acid ([2]; metabolite succinate/Methylmalonic acid): 0.0257
Log2(fold change) succinyl-CoA/methylmalonyl-CoA ([2]; metabolite succinyl-CoA/methylmalonyl-CoA): 0.0000
Log2(fold change) taurine ([2]; metabolite taurine): -0.1171
Log2(fold change) thiamine ([2]; metabolite thiamine): -0.2236
Log2(fold change) threonine/homoserine ([2]; metabolite threonine/homoserine): -0.3606
Log2(fold change) thymidine ([2]; metabolite thymidine): 0.0000
Log2(fold changes) thymine ([2]; metabolite thymine, log2 fold change): 0.0000
Log2(fold changes) trehalose-6-Phosphate ([2]; metabolite trehalose-6-Phosphate, log2 fold change): 0.0000
Log2(fold changes) tryptophan ([2]; metabolite tryptophan, log2 fold change): -0.3412
Log2(fold changes) tyrosine ([2]; metabolite tyrosine, log2 fold change): -0.2808
Log2(fold changes) uridine ([2]; metabolite uridine, log2 fold change): 0.0000
IC50 [3]: 1.3 nM
